Laboratory results reported in US8906925B2, “Pyrido[4,3-B]indoles containing rigid moieties” (Medivation Technologies, Inc., priority 2008, dated 2014).
Values joined by “and” are separate entries in the source; they are usually repeats but may differ in a detail not shown here. Identical values can stand only once.

Legend:
mice (e.g., C57Bl/6J) = assay: Amphetamine-induced hyperactivity, open field test; assay type: in vivo, mouse; conditions: amphetamine (4 mg/kg), 90 min. test
Experimental: Male mice (various strains e.g., C57Bl/6J) from appropriate supplier (for example Jackson Laboratories, Bar Harbor, Me.) were used. Mice typically were received at 6-weeks of age. Mice were acclimated to the colony room for at least two weeks prior to testing. During the period of acclimation, mice were examined on a regular basis, handled, and weighed to assure adequate health and suitability and maintained on a 12 h/12 h light/dark cycle. The room temperature was maintained between 20 and 23° C. with a relative humidity maintained between 30% and 70%. Food and water were provided ad libitum for the duration of the study. In each test, animals were randomly assigned between treatment groups.
The open field test (OF) was used to assess motor activity. […] Horizontal activity (distance traveled) and vertical activity (rearing) were measured from consecutive beam breaks.
On the day of testing, animals were brought to the experimental room for at least 1 h acclimation prior to start of treatment. […] The time of administration of test compound to each animal was recorded. Baseline activity was recorded for […]. following which mice received amphetamine (4 mg/kg) or water and were placed back in the OF chambers for a 60-min. session. […]
Data were analyzed by analysis of variance (ANOVA) followed by post-hoc comparisons with Fisher Tests when appropriate. […]

[1] = molecular target: T1, human recombinant serotonin 5-HT7 receptor (Homo sapiens, UniProt P34969); assay: 5-HT7 antagonist functional assay (cAMP, HTRF, CHO cells); assay type: cell-based; conditions: vs 100 nM 5-HT
T1 construct: expressed in transfected cells; host or cells: CHO cells
T1 sequence (P34969 whole entry): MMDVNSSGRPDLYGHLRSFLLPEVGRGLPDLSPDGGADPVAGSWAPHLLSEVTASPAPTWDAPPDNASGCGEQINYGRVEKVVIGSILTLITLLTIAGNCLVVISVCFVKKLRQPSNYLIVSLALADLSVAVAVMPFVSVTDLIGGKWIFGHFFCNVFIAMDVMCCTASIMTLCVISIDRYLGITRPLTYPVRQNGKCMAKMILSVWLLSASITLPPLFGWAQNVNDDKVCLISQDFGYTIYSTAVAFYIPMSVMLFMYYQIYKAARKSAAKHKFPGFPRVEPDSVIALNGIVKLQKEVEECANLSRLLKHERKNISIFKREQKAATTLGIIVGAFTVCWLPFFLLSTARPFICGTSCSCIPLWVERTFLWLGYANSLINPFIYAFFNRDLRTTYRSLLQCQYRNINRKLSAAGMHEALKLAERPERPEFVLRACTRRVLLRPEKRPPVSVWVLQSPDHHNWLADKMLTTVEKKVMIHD
Source text: To determine for agonist or antagonist activity of compounds of the invention in functional assays, human recombinant serotonin 5-HT2A receptor expressed in human embryonic kidney (HEK-293) cells (Jerman J C, Brough S J, Gager T, Wood M, Coldwell M C, Smart D and Middlemiss D N, Eur J Pharmacol, 414: 23-30, 2001) or human recombinant serotonin 5-HT7 receptor expressed in CHO cells (Adham, et al. J. Pharmacol. Exp. Ther. 287:508-514, 1998) was used. Cells were suspended in DMEM buffer, and distributed in microplates. For the 5-HT2A assay, a cytoplasmic calcium fluorescent indicator which varies proportionally to the free cytosolic Ca^2+ ion concentration was mixed with probenicid in HBSS buffer complemented with 20 mM Hepes (pH 7.4), added into each well and equilibrated with the cells for 30 min. at 37° C. followed by 30 min. at 22° C. For the 5-HT7 assay, the reaction product was cAMP, detected by HTRF.
The standard reference antagonist was ketanserin (5-HT2A) or mesulergine (5-HT7), which was tested in each experiment at several concentrations to generate a concentration-response curve from which its IC50 value was calculated. Compounds were screened at […] or lower, using DMSO as vehicle.

C57Bl/6J mice = assay: Elevated plus maze (EPM) test; assay type: in vivo, mouse; conditions: 0.03, 0.1, and 1 mg/kg, oral
Source text: This study aimed to test the anxiolytic properties of Compound No. 90 using the elevated plus maze (EPM) test in C57Bl/6J mice.
Male C57Bl/6J mice from Jackson Laboratories (Bar Harbor, Me.) were used for the […]. Mice were received at 6-weeks of age. Upon receipt, mice were assigned unique identification numbers (tail marked) and were group housed with 4 mice/cage in OPTI mouse ventilated cages. All animals remained housed in groups of four during the remainder of the study. All mice were acclimated to the colony room for approximately 2 week prior to testing and were subsequently tested at an average age of 8 weeks of age. During the period of acclimation, mice and rats were examined on a regular basis, handled, and weighed to assure adequate health and suitability. Animals were maintained on a 12 h/12 h light/dark cycle. The room temperature was maintained between 20 and 23° C. with a relative humidity maintained between 30% and 70%. Chow and water were provided ad libitum for the duration of the study. In each test, animals were randomly assigned across treatment groups. […]
The elevated plus maze test assessed anxiety. […] The time spent, distance traveled and entries in each arm were automatically recorded by the computer. […]
Data were analyzed using analysis of variance (ANOVA) followed by Fisher's LSD post hoc analysis when appropriate. […]

| IC50 [1] | Structure (SMILES) | Total Distance Traveled (center+periphery), ANOVA (mice (e.g., C57Bl/6J)) | Total Rearing (center+periphery), ANOVA (mice (e.g., C57Bl/6J)) | anxiolytic-like effect in the EPM test compared to vehicle (C57Bl/6J mice) |
| --- | --- | --- | --- | --- |
| 460 nM and 770 nM | C/C(=C\n1c2c(c3cc(Cl)ccc31)CN(C)CC2)c1ccc(F)cc1 [Compound 83, (E)-8-chloro-5-(2-(4-fluorophenyl)prop-1-enyl)-2,3,4,5-tetrahydro-2-methyl-1H-pyrido[4,3-b]indole] | significant treatment effect | significant treatment effect | – |
| – | C/C(=C\n1c2c(c3cc(Cl)ccc31)CN(C)CC2)c1ccncc1 [Compound 90, (E)-8-chloro-2,3,4,5-tetrahydro-2-methyl-5-(2-(pyridin-4-yl)prop-1-enyl)-1H-pyrido[4,3-b]indole] | – | – | did not exert any anxiolytic-like effect |
